Results taken from patent US11214594B2, “Antimicrobial peptide having synergistic antibacterial effect with antibiotics on multidrug resistant bacteria, and use thereof” (priority 2016, dated 2022).
Where a SMILES comes first, the peptide text is derived from it.

How the values were obtained:
[1] = test system: S. typhimurium; assay: microbe, parasite or virus in culture; format: cell-based, Salmonella typhimurium
Outline: (§1)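 Peptides were serially diluted twofold in Mueller-Hinton medium and combined 1:1 with bacterial suspensions prepared at 2×10^6 CFU. Readout was the minimal inhibitory concentration, i.e. the lowest concentration with no growth.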

[2] = test system: A. baumannii; assay: MIC of antibiotic during combined treatment with antimicrobial peptide; format: cell-based, Acinetobacter baumannii; conditions: for Synergistic effect of antibacterial activity with existing antibiotics compared with PapMA-1: A. baumannii and MDRAB 12035; for Antibiotic MIC, Erythromycin / Antibiotic MIC, Linezolid / Antibiotic MIC, Vancomycin: A. baumannii
Outline: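 First, antibiotic solution is diluted with MH medium; next, the dilution is dispensed into wells containing peptide; finally, the orientation is swapped and MIC of each mixture determined.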

[3] = test system: multi-drug resistant bacteria; assay: MIC, summary statements for multi-drug resistant bacteria; format: cell-based
Method: For the antibacterial activity, a minimal inhibitory concentration (MIC) of a peptide in which fungus bodies were not split in an MH medium with sufficient nutrients was measured.
Specifically, the strains described in the following [Table 2] were purchased and diluted with an MH medium such that the number of bacteria was 2×10^6 colony-forming units (CFUs), 100 μl of each of the diluted strains was aliquoted into a 96-well microtiter plate, and then 100 μl of a peptide solution diluted with the MH medium (solution diluted stepwise at 2: 1) was added to each well.

[4] = test system: MDRAB 12035; assay: microbe, parasite or virus in culture; format: cell-based, Acinetobacter baumannii
Outline: as §1

[5] = test system: A. baumannii; assay: microbe, parasite or virus in culture; format: cell-based, Acinetobacter baumannii; conditions: for Antibacterial activity relative to PapMA-1: A. baumannii and S. typhimurium
Outline: as §1

[6] = test system: MDREC 1229; assay: MIC of antibiotic during combined treatment with antimicrobial peptide; format: cell-based, Escherichia coli
Outline: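 Broth microdilution in MH medium; strains were diluted to 2×10^6 CFU per ml before plating. Peptide was serially diluted stepwise at 2:1 starting from its MIC, and MH-diluted antibiotic was then added to determine MIC. The reversed arrangement was also tested.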

[7] = test system: S. aureus; assay: microbe, parasite or virus in culture; format: cell-based, Staphylococcus aureus
Outline: as §1

[8] = combined with peptide at 1 μg/ml
[9] = combined with peptide at 2 μg/ml
[10] = combined with peptide at 4 μg/ml
[11] = combined with peptide at 6 μg/ml
[12] = combined with peptide at 8 μg/ml
[13] = combined with peptide at 16 μg/ml
[14] = combined with peptide at 32 μg/ml
[15] = combined with peptide at 64 μg/ml
[16] = peptide treatment concentration 1 μg/ml
[17] = peptide treatment concentration 2 μg/ml
[18] = peptide treatment concentration 4 μg/ml
[19] = peptide treatment concentration 6 μg/ml
[20] = peptide treatment concentration 8 μg/ml
[21] = peptide treatment concentration 16 μg/ml
[22] = peptide treatment concentration 32 μg/ml
[23] = peptide treatment concentration 64 μg/ml

CC[C@H](C)[C@H](NC(=O)[C@H](CCCCN)NC(=O)[C@H](Cc1c[nH]c2ccccc12)NC(=O)[C@@H](N)CCCNC(=N)N)C(=O)N[C@@H](Cc1ccccc1)C(=O)N[C@@H](CCCCN)C(=O)N[C@@H](CCCCN)C(=O)N[C@H](C(=O)N1CCC[C@H]1C(=O)N[C@@H](CCCCN)C(=O)N[C@@H](Cc1ccccc1)C(=O)N[C@@H](CC(C)C)C(=O)N[C@@H](Cc1c[nH]cn1)C(=O)N[C@@H](CCC(=O)O)C(=O)N[C@@H](C)C(=O)N[C@@H](CCCCN)C(=O)N[C@@H](CCCCN)C(=O)N[C@@H](Cc1c[nH]c2ccccc12)C(N)=O)[C@@H](C)CC [PapMA-14, RWK IFK KIP KFL HEA KKW-NH2] (H-RWKIFKKIPKFLHEAKKW-NH2; N-terminus assumed)
128 µg/mL: Antibiotic MIC, Linezolid [2, 8] | Antibiotic MIC, Erythromycin [6, 16] | Antibiotic MIC, Linezolid [6, 17] | Antibiotic MIC, Vancomycin [6, 18]
twice to four times higher: Antibacterial activity relative to PapMA-1 [3]
at least twice as high: Antibacterial activity relative to PapMA-1 [5]
>128 µg/mL: Antibiotic MIC, Vancomycin [2, 8] | Antibiotic MIC, Linezolid [6, 16] | Antibiotic MIC, Vancomycin [6, 16] | Antibiotic MIC, Vancomycin [6, 17] | Minimal inhibitory concentration MIC [7]
16 µg/mL: Minimal inhibitory concentration MIC [1] | Antibiotic MIC, Erythromycin [2, 8] | Minimal inhibitory concentration MIC [4] | Peptide MIC, peptide alone [4] | Minimal inhibitory concentration MIC [5] | Peptide MIC, peptide alone [5] | Antibiotic MIC, Linezolid [6, 19] | Antibiotic MIC, Linezolid [6, 20]
4 µg/mL: Antibiotic MIC, Erythromycin [6, 19]
8 µg/mL: Antibiotic MIC, Erythromycin [2, 9] | Antibiotic MIC, Linezolid [2, 10] | Antibiotic MIC, Vancomycin [2, 10] | Antibiotic MIC, Erythromycin [6, 18] | Antibiotic MIC, Vancomycin [6, 20]
2 µg/mL: Antibiotic MIC, Erythromycin [2, 10] | Antibiotic MIC, Vancomycin [2, 11]
0 µg/mL: Antibiotic MIC, Erythromycin [2, 13] | Antibiotic MIC, Linezolid [2, 13] | Antibiotic MIC, Vancomycin [2, 13] | Antibiotic MIC, Erythromycin [2, 14] | Antibiotic MIC, Linezolid [2, 14] | Antibiotic MIC, Vancomycin [2, 14] | Antibiotic MIC, Erythromycin [2, 15] | Antibiotic MIC, Linezolid [2, 15] | Antibiotic MIC, Vancomycin [2, 15] | Antibiotic MIC, Erythromycin [6, 21] | Antibiotic MIC, Linezolid [6, 21] | Antibiotic MIC, Vancomycin [6, 21] | Antibiotic MIC, Erythromycin [6, 22] | Antibiotic MIC, Linezolid [6, 22] | Antibiotic MIC, Vancomycin [6, 22] | Antibiotic MIC, Erythromycin [6, 23] | Antibiotic MIC, Linezolid [6, 23] | Antibiotic MIC, Vancomycin [6, 23]
1 µg/mL: Antibiotic MIC, Linezolid [2, 11] | Antibiotic MIC, Vancomycin [2, 12] | Antibiotic MIC, Erythromycin [6, 20]
0.25 µg/mL: Antibiotic MIC, Erythromycin [2, 12]
0.5 µg/mL: Antibiotic MIC, Erythromycin [2, 11] | Antibiotic MIC, Linezolid [2, 12]
64 µg/mL: Antibiotic MIC, Vancomycin [2, 9]
higher level than the PapMA-1 peptide: Synergistic effect of antibacterial activity with existing antibiotics compared with PapMA-1 [2]
32 µg/mL: Antibiotic MIC, Linezolid [2, 9] | Antibiotic MIC, Erythromycin [6, 17] | Antibiotic MIC, Linezolid [6, 18] | Antibiotic MIC, Vancomycin [6, 19]

CC[C@H](C)[C@H](NC(=O)[C@H](CCCCN)NC(=O)[C@H](Cc1c[nH]c2ccccc12)NC(=O)[C@@H](N)CCCNC(=N)N)C(=O)N[C@@H](Cc1ccccc1)C(=O)N[C@@H](CCCCN)C(=O)N[C@@H](CCCCN)C(=O)N[C@H](C(=O)N1CCC[C@H]1C(=O)N[C@@H](CCCCN)C(=O)N[C@@H](CC(C)C)C(=O)N[C@@H](CC(C)C)C(=O)N[C@@H](Cc1c[nH]cn1)C(=O)N[C@@H](CCC(=O)O)C(=O)N[C@@H](C)C(=O)N[C@@H](CCCCN)C(=O)N[C@@H](CCCCN)C(=O)N[C@@H](Cc1c[nH]c2ccccc12)C(N)=O)[C@@H](C)CC [PapMA-13, RWK IFK KIP KLL HEA KKW-NH2] (H-RWKIFKKIPKLLHEAKKW-NH2; N-terminus assumed)
1 µg/mL: Antibiotic MIC, Erythromycin [2, 10] | Antibiotic MIC, Vancomycin [2, 11] | Antibiotic MIC, Linezolid [2, 12]
twice to four times higher: Antibacterial activity relative to PapMA-1 [3]
0 µg/mL: Antibiotic MIC, Erythromycin [2, 13] | Antibiotic MIC, Linezolid [2, 13] | Antibiotic MIC, Vancomycin [2, 13] | Antibiotic MIC, Erythromycin [2, 14] | Antibiotic MIC, Linezolid [2, 14] | Antibiotic MIC, Vancomycin [2, 14] | Antibiotic MIC, Erythromycin [2, 15] | Antibiotic MIC, Linezolid [2, 15] | Antibiotic MIC, Vancomycin [2, 15] | Antibiotic MIC, Erythromycin [6, 21] | Antibiotic MIC, Linezolid [6, 21] | Antibiotic MIC, Vancomycin [6, 21] | Antibiotic MIC, Erythromycin [6, 22] | Antibiotic MIC, Linezolid [6, 22] | Antibiotic MIC, Vancomycin [6, 22] | Antibiotic MIC, Erythromycin [6, 23] | Antibiotic MIC, Linezolid [6, 23] | Antibiotic MIC, Vancomycin [6, 23]
2 µg/mL: Antibiotic MIC, Linezolid [2, 11]
0.5 µg/mL: Antibiotic MIC, Erythromycin [2, 11] | Antibiotic MIC, Vancomycin [2, 12] | Antibiotic MIC, Erythromycin [6, 20]
8 µg/mL: Antibiotic MIC, Erythromycin [2, 9] | Antibiotic MIC, Erythromycin [6, 18] | Antibiotic MIC, Linezolid [6, 19]
>128 µg/mL: Antibiotic MIC, Erythromycin [6, 16] | Antibiotic MIC, Linezolid [6, 16] | Antibiotic MIC, Vancomycin [6, 16] | Antibiotic MIC, Vancomycin [6, 17] | Minimal inhibitory concentration MIC [7]
64 µg/mL: Antibiotic MIC, Linezolid [2, 8] | Antibiotic MIC, Vancomycin [2, 9] | Antibiotic MIC, Linezolid [6, 18] | Antibiotic MIC, Vancomycin [6, 18]
16 µg/mL: Minimal inhibitory concentration MIC [1] | Antibiotic MIC, Erythromycin [2, 8] | Minimal inhibitory concentration MIC [4] | Peptide MIC, peptide alone [4] | Minimal inhibitory concentration MIC [5] | Peptide MIC, peptide alone [5] | Antibiotic MIC, Vancomycin [6, 19]
128 µg/mL: Antibiotic MIC, Vancomycin [2, 8] | Antibiotic MIC, Linezolid [6, 17]
4 µg/mL: Antibiotic MIC, Linezolid [2, 10] | Antibiotic MIC, Vancomycin [2, 10] | Antibiotic MIC, Erythromycin [6, 19] | Antibiotic MIC, Linezolid [6, 20] | Antibiotic MIC, Vancomycin [6, 20]
0.125 µg/mL: Antibiotic MIC, Erythromycin [2, 12]
higher level than the PapMA-1 peptide: Synergistic effect of antibacterial activity with existing antibiotics compared with PapMA-1 [2]
32 µg/mL: Antibiotic MIC, Linezolid [2, 9] | Antibiotic MIC, Erythromycin [6, 17]
at least twice as high: Antibacterial activity relative to PapMA-1 [5]
